Measured values from patent publication US10613091B2, “Methods of developing a prognosis for pancreatic cancer and predicting responsiveness to cancer therapeutics” (DUKE UNIVERSITY, priority 2011, dated 2020).

Tested on: pancreatic adenocarcinoma
Assay: Overall survival (OS) by baseline plasma analytes, CALGB 80303 gemcitabine +/- bevacizumab
Type: in vivo, human
From the text: Eligibility of patients evaluated in this correlative analysis was described previously (Kindler et al., J Clin Oncol 2010 28(22):3617-3622). Briefly, eligible patients had histologically- or cytologically-confirmed pancreatic adenocarcinoma not amenable to curative surgery. Measurable disease was not required. Prior chemotherapy for metastatic disease was not permitted. […] Prior radiation was allowed if it was completed at least 4 weeks prior to enrollment and there was disease outside the radiation port. Patients were required to be at least 18 years of age and have a life expectancy of at least 12 weeks. Written informed consent was obtained from all patients participating in this correlative analysis.
Gemcitabine (1,000 mg/m^2) was administered intravenously over 30 minutes on days 1, 8, and 15 of a 28-day cycle. […]
Patterns of expression were analyzed at baseline and were correlated with overall survival (OS) and progression free survival (PFS) using univariate Cox proportional hazard regression models and multivariate Cox models with leave-one-out cross validation. Spearman's rank correlation coefficients were calculated for all pairs of analytes. […]
The primary endpoint of interest will be overall survival (OS) with correlation to the blood analytes; however, progression-free survival (PFS) was evaluated. […]

## bevacizumab: monoclonal antibody against VEGF
VEGF-D above Q1, more than 1092.35 pg/mL, p=0.035
  benefit from bevacizumab (overall survival): predicted for lack of benefit
VEGF-D below Q1, less than 1092.35 pg/mL, p=0.033
  benefit from bevacizumab (overall survival): predicted for benefit
